Measurements reported in US4693977A, “Enzyme immobilization for producing cephalosporin antibiotics” (Queen's University at Kingston, priority 1986, dated 1987).
Several values for one entry are separate records, joined by “and”; a condition that tells them apart may be missing. Identical values can stand only once.

Experiments:
[1] = molecular target: T1, cyclase, epimerase and ring expansion enzyme from a cell-free extract of S. clavuligerus (Streptomyces clavuligerus, UniProt P10621); test: Cyclization / ring expansion of peptides with enzymes of S. clavuligerus cell-free extract (SPCFX); assay type: biochemical
T1 construct: from a cell-free extract of S. clavuligerus; endogenous in cells; host or cells: Streptomyces clavuligerus (cell-free extract / salt-precipitated cell-free extract)
T1 sequence (P10621 1-329): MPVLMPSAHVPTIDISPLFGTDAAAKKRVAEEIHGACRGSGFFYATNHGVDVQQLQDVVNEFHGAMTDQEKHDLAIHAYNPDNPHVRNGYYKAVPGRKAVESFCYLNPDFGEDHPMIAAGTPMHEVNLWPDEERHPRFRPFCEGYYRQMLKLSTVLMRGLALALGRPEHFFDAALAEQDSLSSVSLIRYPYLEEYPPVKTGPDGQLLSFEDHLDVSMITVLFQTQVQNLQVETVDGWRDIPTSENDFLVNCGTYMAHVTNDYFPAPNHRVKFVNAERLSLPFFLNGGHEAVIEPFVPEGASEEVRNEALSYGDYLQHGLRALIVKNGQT
Method: (§1) Cyclization activity of enzyme preparations was measured in reaction mixtures containing: bis-δ-(L-α-amino-adipyl-L-cysteinyl-D-valine) (ACV)2 0.306 mM, […] 4 mM, Na ascorbate 2.8 mM, FeSO4 45 μM, tris-HCl buffer 0.05M, pH 7.0, enzyme preparation 0.03-0.3 ml, final volume 0.4 ml. Reaction mixtures were incubated at 20° C. for up to 4 hours and stopped by cooling on ice or by the addition of 0.4 ml methanol.
(§2) Ring expansion activity was followed using the cyclization assay system described above but supplemented with ATP 0.5 mM, α-ketoglutarate 1 mM, KCl 7.5 mM, and MgSO4 7.5 mM. Total volume and incubation conditions were the same as for the cyclization assay.
(§3) To 0.4 ml of reaction mixture were added 0.9 mM of ACV dimer as produced in Example 4, 50.0 mM Tris-HCl pH 7.0 buffer and a mixture of the three enzymes as produced in Example 1 from a cell-free extract of S. clavuligerus, together with 45.0 μM ferrous sulfate and 2.8 mM ascorbic acid as optimized amounts of essential co-factors. DTT was added in excess of the amount required to reduce ACV dimer to ACV monomer. The reaction was continued for approximately 2 hours at 20° C. and then terminated by addition of 0.4 ml methanol to precipitate protein.
(§4) The procedures of Example 7 were repeated using L-aspartyl, L-glutamyl, D-α-aminoadipyl, adipyl, glycyl-L-α-aminoadipyl and N-acetyl-L-α-aminodipyl-containing peptides. […] A prokaryotic system is, therefore, required. Modification of the valinyl moiety, as noted above, has been considered in detail. Substrates modified in the valinyl moiety such as: [drawing 17] where R1 is H, a lower alkyl or functionalized carboxylic group; and R2 is H or a lower alkyl group may be cyclized with carbon-sulfur bond formation with retention of configuration at the beta carbon of the valine analog, leading to isopenicillin N analogs of the type: [drawing 18] Following epimerization to penicillin N analogs of the type: [drawing 19] ring expansion leads to cephalosporin analogs of the type: with transfer of the beta carbon atom attached to C2 of (11) into C2 of the six membered ring.
(§5) Methanol inactivated reaction mixtures (from Examples 7 and 8) were centrifuged at 12,000×g for 5 min to remove precipitated protein before analysis. Reaction mixtures from Example 9 were examined directly. The chromatographic equipment used was: M-6000A pump, UK-6 injector, M-480 variable wavelength director, M-420 data module and Bondapak-C18 column (Rad Pak A in a Z module) as stationary phase. All equipment was from Waters Scientific Co., Mississauga, Ontario. The mobile phase consisted of methanol/0.05 M potassium phosphate buffer, pH 4.0 (5/95). The methanol content of the mobile phase depended upon the particular separation and the source of the material e.g. Examples 7 and 8 or Example 9. A short precolumn (packed with Bondapak C18 /Corasil) was used to guard the main column. UV-absorbing material was detected at 220 nm at a sensitivity of 0.02 AUFS.

[2] = test system: cyclase, epimerase and ring expansion enzyme from a cell-free extract of S. clavuligerus; test: as above; assay type: biochemical
Method: as §1, §2, §3, §4, §5

Escherichia coli Ess = test: Agar diffusion bioassay of reaction mixtures versus E. coli Ess; assay type: cell-based; details: for Zone of Inhibition, E. coli Ess: SPCFX, 2h at 20° C., 20 μl
Description: (§6) Antibiotic in reaction mixtures was estimated by the agar diffusion method. Cyclization reaction mixtures were bioassayed using Micrococcus luteus ATCC. 9341 and Escherichia coli Ess as indicator organisms. Ring expansion reaction mixtures were bioassayed using E. coli Ess as indicator organism in agar plates supplemented with penicillinase at 2×10^5 units/ml
(§7) The procedure of Example 7 was repeated with ACV analogs in which valine was replaced by alpha-aminobutyric acid (R1 =R2 =H) and allo-isoleucine (R1 =H, R2 =C2 H5), as follows: (AC-aminobutyrate)2 (ACAB)2 and (AC-alloisoleucine)2 (ACI)2 were dissolved in water, neutralized, and lyophilized in 0.1 and 1.0 mg amounts. These peptides were then used as substrates in cyclization and ring expansion assays as follows: One hundred micrograms of (ACV)2 from Example 6 was used as substrate in a cyclization and a ring expansion assay system using 0.1 ml of salt-precipitated cell-free extract as enzyme source in each case. (Final concentration of (ACV)2 is 0.306 mM). Identical cyclization and ring expansion assays were set up in which 100 μg (ACAB)2 or 1.0 mg (ACI)2 replaced the (ACV)2 as substrate and 0.3 ml of salt precipitated cell-free extract was used as enzyme source. No substrate controls were also prepared. The reaction mixtures were incubated for 2h at 20° C. At the end of incubation 20 μl amounts of the cyclization reaction mixtures were bioassayed versus M. luteus and E. coli Ess; 20 μl amounts of the ring expansion reaction mixtures were bioassayed versus E. coli Ess plus and minus penicillinase.

[3] = test system: Micrococcus luteus ATCC. 9341; test: Agar diffusion bioassay of cyclization reaction mixtures versus M. luteus; assay type: cell-based; details: cyclization reaction mixture, SPCFX, 2h at 20° C., 20 μl
Description: as §6, §7

[4] = test system: E. coli Ess + penicillinase; test: Agar diffusion bioassay of ring expansion reaction mixtures, plates with penicillinase; assay type: cell-based, Escherichia coli; details: for Zone of Inhibition, E. coli Ess + penicillinase: SPCFX, 2h at 20° C., 20 μl; for Cephalosporin C "equivalents" / Zone of Inhibition: immobilized enzyme reactor reaction mixture
Method: (§8) 2 ml of the reaction mixture was applied to the immobilized enzyme reactor by means of a peristaltic pump operating at 40 ml/h. Effluent was collected into a 13×100 mm test tube from which the original reaction mixture was pumped, and therefore was recycled continuously through the enzyme reactor. The enzyme reactor was operated at 21° C. and 20 μl aliquots were removed at 15 minute time intervals for analysis for antibiotic formation. (Table I).
as §6, §7

[5] = molecular target: T2, immobilized SPCFX (cyclase, epimerase, ring expansion enzyme) on DEAE Trisacryl (Streptomyces clavuligerus, UniProt P10621); test: Conversion of ACV on immobilized SPCFX column (immobilized enzyme reactor), HPLC; assay type: biochemical; details: 1 mg ACV, cycled 1.5 hours at 40 ml per hour through 2 ml immobilized SPCFX
T2 construct: Cell-free extracts were prepared by washing 40-48 h cells of S. clavuligerus; endogenous in cells
T2 sequence (P10621 1-329): T1 sequence (P10621 1-329)
Method: DEAE-Trisacryl® resin was loaded into a column 0.4×5.8 cm (packed bed volume, 1 ml), washed with 3×2 ml of the same EDTA buffer, and allowed to drain to dryness by gravity. One milliliter of the salt-precipitated cell-free extract above was applied to the column. The effluent was collected and reapplied to the column twice to ensure complete enzyme loading. The column was washed with 2×1 ml of the same EDTA buffer, drained dry and centrifuged for 3 min. at 500×g to remove excess buffer. This immobilized enzyme reactor was stored at 4° C. when not in use.
as §8
Methanol inactivated reaction mixtures (from Examples 7 and 8) were centrifuged at 12,000×g for 5 min to remove precipitated protein before analysis. Reaction mixtures from Example 9 were examined directly. […] UV-absorbing material was detected at 220 nm at a sensitivity of 0.02 AUFS. […]

[6] = ring expansion reaction mixture
[7] = mixture of the three enzymes, approx. 2 hours at 20° C., without alpha-ketoglutarate

CC(=O)N[C@@H](CCCC(=O)N[C@@H](CS)C(=O)N[C@@H](C(=O)O)C(C)C)C(=O)O
cyclization of the peptide ([1]; procedures of Example 7): Cyclization was observed | conversion product with SPCFX ([2]; via an initial deacylation to ACV): penicillin N and isopenicillin N

CC[C@@H](NC(=O)[C@H](CSSC[C@H](NC(=O)CCC[C@H](N)C(=O)O)C(=O)N[C@H](CC)C(=O)O)NC(=O)CCC[C@H](N)C(=O)O)C(=O)O [(ACAB)2]
antibiotic activity equivalent to a solution of cephalosporin C against E. coli Ess (Escherichia coli Ess; cyclization reaction mixture): 0.9 µg/mL | Zone of Inhibition, E. coli Ess (Escherichia coli Ess; cyclization reaction mixture): 12.5 mm | formation of antibiotic affecting E. coli Ess (Escherichia coli Ess; [6]): nor do they form any antibiotic affecting E. coli Ess | Zone of Inhibition, E. coli Ess (Escherichia coli Ess; [6]): 8.0 mm | Zone of Inhibition, M. luteus [3]: 8.0 mm | formation of penicillinase-insensitive antibiotic [4, 6]: do not form penicillinase-insensitive antibiotic | Zone of Inhibition, E. coli Ess + penicillinase [4, 6]: 0 mm

CC[C@H](C)[C@@H](NC(=O)[C@H](CSSC[C@H](NC(=O)CCC[C@H](N)C(=O)O)C(=O)N[C@@H](C(=O)O)[C@@H](C)CC)NC(=O)CCC[C@H](N)C(=O)O)C(=O)O [(ACI)2]
antibiotic activity equivalent to a solution of cephalosporin C against E. coli Ess (Escherichia coli Ess; cyclization reaction mixture): 4.85 µg/mL | Zone of Inhibition, E. coli Ess (Escherichia coli Ess; cyclization reaction mixture): 20.0 mm | Zone of Inhibition, E. coli Ess (Escherichia coli Ess; [6]): 20.0 mm | Zone of Inhibition, M. luteus [3]: 13.0 mm | antibiotic activity equivalent to a solution of cephalosporin C, E. coli Ess + penicillinase plates [4, 6]: 0.9 µg/mL | Zone of Inhibition, E. coli Ess + penicillinase [4, 6]: 12.5 mm

CC(C)[C@@H](NC(=O)[C@H](CSSC[C@H](NC(=O)CCC[C@H](N)C(=O)O)C(=O)N[C@@H](C(=O)O)C(C)C)NC(=O)CCC[C@H](N)C(=O)O)C(=O)O [(ACV)2, bis-δ-(L-α-amino-adipyl-L-cysteinyl-D-valine)]
antibiotic activity equivalent to a solution of cephalosporin C against E. coli Ess (Escherichia coli Ess; cyclization reaction mixture): 29.3 µg/mL | Zone of Inhibition, E. coli Ess (Escherichia coli Ess; cyclization reaction mixture): 28.0 mm | Zone of Inhibition, E. coli Ess (Escherichia coli Ess; [6]): 28.5 mm | Zone of Inhibition, M. luteus [3]: 29.0 mm | Cephalosporin C "equivalents" ([4]; sample time 0 min): 0 | Zone of Inhibition ([4]; sample time 0 min, 20 μl aliquot): 0 mm | Cephalosporin C "equivalents" ([4]; sample time 15 min): .031 μm | Zone of Inhibition ([4]; sample time 15 min): 15 mm | Cephalosporin C "equivalents" ([4]; sample time 30 min): .086 μm | Zone of Inhibition ([4]; sample time 30 min): 19.5 mm | Cephalosporin C "equivalents" ([4]; sample time 45 min): .062 μm | Zone of Inhibition ([4]; sample time 45 min): 18.5 mm | Cephalosporin C "equivalents" ([4]; sample time 60 min): .136 μm | Zone of Inhibition ([4]; sample time 60 min): 21.5 mm | Cephalosporin C "equivalents" ([4]; sample time 75 min): .136 μm | Zone of Inhibition ([4]; sample time 75 min): 21.5 mm | antibiotic activity equivalent to a solution of cephalosporin C, E. coli Ess + penicillinase plates [4, 6]: 7.6 µg/mL | Zone of Inhibition, E. coli Ess + penicillinase [4, 6]: 22 mm and 22.0 mm

CC(C)[C@@H](NC(=O)[C@H](CS)NC(=O)CCC[C@H](N)C(=O)O)C(=O)O [ACV, L-aminoadipyl-L-cysteinyl-D-valine]
conversion product by bioassay and HPLC [1, 7]: converted to a mixture of isopenicillin N and penicillin N | ring expansion to a cephalosporin [2, 7]: did not occur | conversion product ([2]; mixture of the three enzymes, with 1 mM alpha-ketoglutarate): converted to desacetoxycephalosporin C | conversion of ACV into a mixture of isopenicillin N, penicillin N, desacetoxycephalosporin C and desacetylcephalosporin C, by HPLC [5]: approximately 90%

CC(C)[C@@H](NC(=O)[C@H](CS)NC(=O)CCCCC(=O)O)C(=O)O [adipyl-containing peptide]
cyclization of the peptide ([1]; procedures of Example 7): Cyclization was observed | cyclization to the corresponding penicillin, carboxybutylpenicillin ([1]; procedures of Example 7): ~20%
